Values after ≈ are worked out from the molar mass of the structure shown. Counter-ions that a name gives are not always drawn.
What was measured:
[1] = test system: Citrobacter freundii 1982; assay: MIC in vitro of a 1:4 combination of ceftriaxone with a compound of formula I (Test D); type: cell-based; conditions: Table 4; test D, 1:4 combination of ceftriaxone with the compound
Protocol: The minimum inhibitory concentration in vitro ([…]) of a 1:4 combination of ceftriaxone with a compound of formula I against Citrobacter freundii 1982 was measured and compiled in Table 2 hereinafter.

E. coli 1346 = assay: Antibacterial activity of the products per se, serial dilution method in liquid medium (Test E); type: cell-based; conditions: Table 4; test E, product per se
Excerpt: The antibacterial activity of the products per se is illustrated on the basis of Table 3 hereinafter, the minimum inhibitory concentration […] in vitro against E. coli 1346 being determined using the serial dilution method in liquid medium: […]

SMILES	MIC C. freundii 1982 (D) [1] [µg/mL]	MIC E. coli 1346 (E) (E. coli 1346) [µg/mL]
CO/N=C(\C(=O)N1C[C@H]2CC(COC(N)=O)=C(C(=O)O)N3C(=O)[C@@H]1[C@@H]23)c1csc(N)n1 [Example 60, (Z)-(1aS,3aR,6bR)-2-[(2-Amino-thiazol-4-yl)-methoxyimino-acetyl]-5-carbamoyloxymethyl-1-oxo-1a,2,3,3a,4,6b-hexahydro-1H-2,6a-diazacyclobut[cd]indene-6-carboxylic acid]	2	> 32
CCOC(=O)N1C[C@H]2CC(CSc3nnnn3C)=C(C(=O)O)N3C(=O)[C@@H]1[C@@H]23 [Example 62, (1aS,3aR,6bR)-5-(1-Methyl-1H-tetrazol-5-ylsulphanylmethyl)-1-oxo-1a,2,3,3a,4,6b-hexahydro-1H-2,6a-diazacyclobut[cd]indene-2,6-dicarboxylic acid 2-ethyl ester]	0.5	16 (≈ 40.6 µM)
Cc1nnc(SCC2=C(C(=O)O)N3C(=O)[C@H]4NC[C@@H](C2)[C@H]43)s1 [Example 63, (1aS,3aR,6bR)-5-(5-Methyl-1,3,4-thiadiazol-2-ylsulphanylmethyl)-1-oxo-1a,2,3,3a,4,6b-hexahydro-1H-2,6a-diazacyclobut[cd]indene-6-carboxylic acid trifluoroacetate]	2	8
Cc1nnc(SCC2=C(C(=O)O)N3C(=O)[C@@H]4[C@H]3[C@H](C2)CN4C(=O)Nc2ccc(O)cc2)s1 [Example 64, (1aS,3aR,6bR)-2-(4-Hydroxy-phenylcarbamoyl)-5-(5-methyl-1,3,4-thiadiazol-2-ylsulphanylmethyl)-1-oxo-1a,2,3,3a,4,6b-hexahydro-1H-2,6a-diazacyclobut[cd]indene-6-carboxylic acid sodium salt]	0.5	> 32
O=C(O)C1=C(CSc2nc(-c3cccnc3)cs2)C[C@@H]2CN[C@@H]3C(=O)N1[C@H]23 [Example 66, (1aS,3aR,6bR)-1-Oxo-5-(4-pyridin-3-yl-thiazol-2-ylsulphanylmethyl)-1a,2,3,3a,4,6b-hexahydro-1H-2,6a-diazacyclobut[cd]indene6-carboxylic acid trifluoroacetate]	8	4
NC(=O)Cn1nnnc1SCC1=C(C(=O)O)N2C(=O)[C@H]3NC[C@@H](C1)[C@H]32 [Example 69, (1aS,3aR,6 bR)-5-(1-Carbamoylmethyl-1H-tetrazol-5-ylsulphanylmethyl)-1-oxo-1a,2,3,3a,4,61>hexahydro-1H-2,6a-diazacyclobut[cd]indene-6-carboxylic acid trifluoroacetate]	0.5	2
O=C(O)C1=C(CSc2ncccn2)C[C@@H]2CN[C@@H]3C(=O)N1[C@H]23 [Example 71, (1aS,3aR,6bR)-1-Oxo-5-(pyrimidin-2-ylsulphanylmethyl)-1a,2,3,3a,4,6b-hexahydro-1H-2,6a-diazacyclobut[cd]indene-6-carboxylic acid trifluoroacetate]	2	8
CNC(=O)Cn1nnnc1SCC1=C(C(=O)O)N2C(=O)[C@H]3NC[C@@H](C1)[C@H]32 [Example 73, (1aS,3aR,6bR)-5-(1-Methylcarbamoylmethyl-1H-tetrazol-5-ylsulphahylmethyl)-1-oxo-1a,2,3,3a,4,6b-hexahydro-1H-2,6 a-diazacyclobut[cd]indene-6-carboxylicacid trifluoroacetate]	1	1
O=C(O)C1=C(CSc2nc[nH]n2)C[C@@H]2CN[C@@H]3C(=O)N1[C@H]23 [Example 75, (1aS,3aR,6 bR)-1-Oxo-5-(1H-1,2,4-triazol-3-ylsulphanylmethyl)-1a,2,3,3a,4,6b-hexahydro-1H-2,6a-diazacyclobut[cd]indene-6-carboxylic acid trifluoroacetate]	1	4
O=C(Cn1nnnc1SCC1=C(C(=O)O)N2C(=O)[C@H]3NC[C@@H](C1)[C@H]32)Nc1ccc(O)cc1 [Example 77, (1aS,3aR,6bR)-5-[1-(4-Hydroxy-phenylcarbamoylmethyl)-1H-tetrazol-5-ylsulphanylmethyl]-1-oxo-1a,2,3,3a,4,6b-hexahydro-1H-2,6a-diazacyclobut[cd]indene-6-carboxylic acid trifluoroacetate]	2	2
O=C(Cn1nnnc1SCC1=C(C(=O)O)N2C(=O)[C@H]3NC[C@@H](C1)[C@H]32)NCCc1ccccc1 [Example 79, (1aS,3aR,6bR)-1-Oxo-5-[1-(phenethylcarbamoylmethyl)-1H-tetrazol-5-ylsulphanylmethyl]-1a,2,3,3a,4,6b-hexahydro-1H-2,6a-diazacyclobut[cd]indene-6-carboxylic acid trifluoroacetate]	4	2
[N-]=[N+]=NCC1=C(C(=O)O)N2C(=O)[C@H]3NC[C@@H](C1)[C@H]32 [Example 81, (1aS,3aR,6bR)-5-Azidomethyl-1-oxo-1a,2,3,3a,4,6b-hexahydro-1H-2,6a-diazacyclobut[cd]indene-6-carboxylic acid trifluoroacetate]	1	1
[N-]=[N+]=NCC1=C(C(=O)O)N2C(=O)[C@@H]3[C@H]2[C@H](C1)CN3C(=O)Nc1ccc(O)cc1 [Example 82, (1aS,3aR,6bR)-5-Azidomethyl-2-(4-hydroxy-phenylcarbamoyl)-1-oxo-1a,2,3,3a,4,6b-hexahydro-1H-2,6a-diazacyclobut[cd]indene-6-carboxylic acid sodium salt]	0.25	16
CC(=O)NCC1=C(C(=O)O)N2C(=O)[C@H]3NC[C@@H](C1)[C@H]32 [Example 84, (1aS,3aR, 6bR)-5-Acetylaminomethyl-1-oxo-l a,2,3,3a,4,6b-hexahydro-1H-2,6a-diazacyclobut[cd]indene-6-carboxylic acid trifluoroacetate]	4	2
CC(=O)NCC1=C(C(=O)O)N2C(=O)[C@@H]3[C@H]2[C@H](C1)CN3C(=O)Nc1ccc(O)cc1 [Example 85, (1aS,3aR,6bR)-5-Acetylaminomethyl-2-(4-hydroxy-phenylcarbamoyl)-1-oxo-1a,2,3,3a,4,6b-hexahydro-1H-2,6a-diazacyclobut[cd]indene-6-carboxylic acid sodium salt]	0.5	> 32
CC(=O)NCC1=C(C(=O)O)N2C(=O)[C@@H]3[C@H]2[C@H](C1)CN3C(=O)C(F)(F)F [Example 86, (1aS,3aR,6bR)-5-Acetylaminomethyl-1-oxo-2-trifluoroacetyl-1a,2,3,3a,4,6b-hexahydro-1H-2,6a-diazacyclobut[cd]indene-6-carboxylic acid sodium salt]	2	16
CS(=O)(=O)NCC1=C(C(=O)O)N2C(=O)[C@H]3NC[C@@H](C1)[C@H]32 [Example 87, (1aS,3aR,6bR)-5-Methylsulphonylaminomethyl-1-oxo-1a,2,3,3a,4,6b-hexahydro-1H-2,6a-diazacyclobut[cd]indene-6-carboxylic acid trifluoroacetate]	4	16
O=C(Nc1ccc(O)cc1)OCC1=C(C(=O)O)N2C(=O)[C@H]3NC[C@@H](C1)[C@H]32 [Example 89, (1aS,3aR,6bR)-5-(4-Hydroxy-phenylcarbamoyloxymethyl)-1-oxo-1a,2,3,3a,4,6b-hexahydro-1H-2,6a-diazacyclobut[cd]indene-6-carboxylic acid trifluoroacetate]	2	4
O=C(NCC(F)(F)F)OCC1=C(C(=O)O)N2C(=O)[C@H]3NC[C@@H](C1)[C@H]32 [Example 91, (1aS,3aR,6bR)-1-Oxo-5-(2,2,2-trifluoroethylcarbamoyloxymethyl)-1a,2,3,3a,4,6b-hexahydro-1H-2,6a-diazacyclobut[cd]indene-6-carboxylic acid trifluoroacetate]	2	4
O=C(NC1CC1)OCC1=C(C(=O)O)N2C(=O)[C@H]3NC[C@@H](C1)[C@H]32 [Example 93, (1aS,3aR,6bR)-5-Cyclopropylcarbamoyloxymethyl-1-oxo-1a,2,3,3a,4,6b-hexahydro-1H-2,6a-diazacyclobut[cd]indene-6-carboxylicacid trifluoroacetate]	2	8
NC(=O)CNC(=O)OCC1=C(C(=O)O)N2C(=O)[C@H]3NC[C@@H](C1)[C@H]32 [Example 95, (1aS,3aR,6bR)-5-Carbamoylmethylcarbamoyloxymethyl-1-oxo-1a,2,3,3a,4,6b-hexahydro-1H-2,6a-diazacyclobut[cd]indene-6-carboxylic acid trifluoroacemte]	0.5	4 (≈ 12.3 µM)
CNC(=O)OCC1=C(C(=O)O)N2C(=O)[C@H]3NC[C@@H](C1)[C@H]32 [Example 97, (1aS,3aR,6bR)-5-Methylcarbamoyloxymethyl-1-oxo-1a,2,3,3a,4,6b-hexahydro-1H-2,6a-diazacyclobut[cd]indene-6-carboxylic acid trifluoroacetate]	1	4
O=C(NCc1ccncc1)OCC1=C(C(=O)O)N2C(=O)[C@H]3NC[C@@H](C1)[C@H]32 [Example 99, (1aS,3aR,6bR)-1-Oxo-5-(pyridin-4-ylmethylcarbamoyloxymethyl)-1a,2,3,3a,4,6b-hexahydro-1H-2,6a-diazacyclobut[cd]indene-6-carboxylic acid trifluoroacetate]	2	4

From patent US5464617A, “β-lactam compounds” (Hoffmann-La Roche Inc., priority 1994, dated 1995)
